Assay results published in patent publication US12257184B2, “Ocular device and drug delivery system, with case” (priority 2019, dated 2025).

Experiment: Ex vivo release of therapeutic agent from insert into phosphate buffer, UV scanning spectrophotometer
Assay type: physicochemical
Settings: drug 20%, phosphate buffer pH 7, 37° C.
Procedure: Ocular Daily Wear is defined by FDA Class II CFR 866.5925 products currently indicated for ocular use and sclera tissue contact.
To begin testing, a UV scanning spectrophotometer concentration calibration curve for the therapeutic agent was established. The insert was prepared to the specification in the particular Table, and the time duration sample plan for measurement was determined. The insert was weighed to establish T=0. The insert was immersed in phosphate buffer of a fixed constant volume. A mean body temperature of 37° C. (e.g., from about 36.5° C. to about 37.5° C.) was simulated for the identified time interval. The insert was transferred and immersed at the end of each time period into a new phosphate buffer test container. The simulated mean 37° C.-body temperature was continued to next time interval. The UV scanning spectrophotometer data was generated for each time interval sample. The release rate was calculated versus time for the therapeutic agent, and graphical plots of the data were generated.

[1] = Table 8, Rod, 2 Component: EVA (40% vinyl acetate) 80%, no PEO
[2] = Table 8, In Device, 3 Component: EVA (40% vinyl acetate) 40%, PEO 40%
[3] = Table 9, In Device, 3 Component: EVA (40% vinyl acetate) 40%, PEO 40%

Row | SMILES | 1 Day % Release [1] [%] | 1 Day % Release [2] [%] | 2 Day % Release [2] [%] | 1 Day % Release (Table 8, In Device, 3 Component: EVA (40% vinyl acetate) 40%, PEO 40%, listed as dexamethasone phosphate) [%] | 1 Day % Release [3] [%] | 2 Day % Release [3] [%]
1 | CC(=O)OCC(=O)[C@@]1(O)[C@H](C)C[C@H]2[C@@H]3CCC4=CC(=O)C=C[C@]4(C)[C@@]3(F)[C@@H](O)C[C@@]21C [Dexamethasone 21 Acetate] | 1.89 | – | – | – | – | –
2 | C[C@@H]1C[C@H]2[C@@H]3CCC4=CC(=O)C=C[C@]4(C)[C@@]3(F)[C@@H](O)C[C@]2(C)[C@@]1(O)C(=O)COP(=O)(O)O [Dexamethasone Phosphate] | 3.39 | 82.7 | 85.3 | 82.7 | – | –
3 | CN(C)CC/C=C1/c2ccccc2COc2ccc(CC(=O)O)cc21 [Olopatadine FB, Olopatadine] | – | – | – | – | 35 | 43
